For assay [1], the species on record is Mus musculus. Description: Immunostimulatory activity in BALB/c mouse vaccinated with inactivated PR8 (A/H1N1) assessed as animal survival at 0.1 ug measured 3 weeks after immunization. Conditions: dose 0.1 µg. In kind it is functional.
The species entered for assay [2] is Mus musculus. Description: Immunostimulatory activity in BALB/c mouse vaccinated with inactivated PR8 (A/H1N1) assessed as animal survival at 1 ug measured 3 weeks after immunization. In kind it is functional. Conditions: dose 1 µg.
For assay [3], the target named is T1, Toll-like receptor 7 (Mus musculus, UniProt P58681).
T1 sequence (P58681 whole entry): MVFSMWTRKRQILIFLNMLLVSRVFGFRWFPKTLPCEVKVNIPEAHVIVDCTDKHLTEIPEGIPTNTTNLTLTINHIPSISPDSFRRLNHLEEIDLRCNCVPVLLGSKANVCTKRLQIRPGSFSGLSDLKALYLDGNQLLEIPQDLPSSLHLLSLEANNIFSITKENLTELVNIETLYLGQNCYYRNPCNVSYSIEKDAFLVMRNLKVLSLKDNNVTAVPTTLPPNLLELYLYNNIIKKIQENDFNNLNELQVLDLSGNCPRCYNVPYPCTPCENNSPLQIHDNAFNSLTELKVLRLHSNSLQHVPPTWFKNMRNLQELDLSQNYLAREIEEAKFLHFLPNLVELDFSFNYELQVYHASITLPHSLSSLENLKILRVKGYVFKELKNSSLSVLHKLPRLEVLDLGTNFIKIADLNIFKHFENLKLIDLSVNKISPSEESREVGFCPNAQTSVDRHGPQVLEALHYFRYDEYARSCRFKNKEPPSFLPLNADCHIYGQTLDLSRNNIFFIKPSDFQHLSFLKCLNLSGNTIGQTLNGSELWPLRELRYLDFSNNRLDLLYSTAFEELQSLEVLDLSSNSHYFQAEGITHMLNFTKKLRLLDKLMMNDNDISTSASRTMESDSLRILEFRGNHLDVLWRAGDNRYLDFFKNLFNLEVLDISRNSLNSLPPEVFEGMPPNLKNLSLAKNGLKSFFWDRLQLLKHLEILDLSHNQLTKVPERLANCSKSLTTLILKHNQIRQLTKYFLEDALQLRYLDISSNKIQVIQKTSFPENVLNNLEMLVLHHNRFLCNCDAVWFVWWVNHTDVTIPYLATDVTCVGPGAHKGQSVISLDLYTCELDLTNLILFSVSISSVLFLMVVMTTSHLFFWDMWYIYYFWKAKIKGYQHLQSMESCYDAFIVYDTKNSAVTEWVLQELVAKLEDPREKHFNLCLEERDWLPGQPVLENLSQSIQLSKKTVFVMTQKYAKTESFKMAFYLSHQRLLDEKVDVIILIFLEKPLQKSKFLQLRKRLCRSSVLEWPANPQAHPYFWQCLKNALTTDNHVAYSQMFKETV
Description: Agonist activity at mouse TLR7 expressed in HEK293 cells co-expressing NF-kappaB/AP-1 inducible SEAP reporter gene measured for 24 hrs by colorimetric analysis. The assay is classed as cell-based. In general terms: Reporter assays use an easily measured gene product as a stand-in for the process of interest.

For assay [4], the species on record is Mus musculus. Description: Immunostimulatory activity in BALB/c mouse vaccinated with inactivated PR8 (A/H1N1) assessed as animal survival at 0.01 ug measured 3 weeks after immunization. The following applies: dose 0.01 µg. The assay is classed as functional.
For assay [5], the target named is T2, Toll-like receptor 7 (Homo sapiens, UniProt Q9NYK1).
T2 sequence (Q9NYK1 whole entry): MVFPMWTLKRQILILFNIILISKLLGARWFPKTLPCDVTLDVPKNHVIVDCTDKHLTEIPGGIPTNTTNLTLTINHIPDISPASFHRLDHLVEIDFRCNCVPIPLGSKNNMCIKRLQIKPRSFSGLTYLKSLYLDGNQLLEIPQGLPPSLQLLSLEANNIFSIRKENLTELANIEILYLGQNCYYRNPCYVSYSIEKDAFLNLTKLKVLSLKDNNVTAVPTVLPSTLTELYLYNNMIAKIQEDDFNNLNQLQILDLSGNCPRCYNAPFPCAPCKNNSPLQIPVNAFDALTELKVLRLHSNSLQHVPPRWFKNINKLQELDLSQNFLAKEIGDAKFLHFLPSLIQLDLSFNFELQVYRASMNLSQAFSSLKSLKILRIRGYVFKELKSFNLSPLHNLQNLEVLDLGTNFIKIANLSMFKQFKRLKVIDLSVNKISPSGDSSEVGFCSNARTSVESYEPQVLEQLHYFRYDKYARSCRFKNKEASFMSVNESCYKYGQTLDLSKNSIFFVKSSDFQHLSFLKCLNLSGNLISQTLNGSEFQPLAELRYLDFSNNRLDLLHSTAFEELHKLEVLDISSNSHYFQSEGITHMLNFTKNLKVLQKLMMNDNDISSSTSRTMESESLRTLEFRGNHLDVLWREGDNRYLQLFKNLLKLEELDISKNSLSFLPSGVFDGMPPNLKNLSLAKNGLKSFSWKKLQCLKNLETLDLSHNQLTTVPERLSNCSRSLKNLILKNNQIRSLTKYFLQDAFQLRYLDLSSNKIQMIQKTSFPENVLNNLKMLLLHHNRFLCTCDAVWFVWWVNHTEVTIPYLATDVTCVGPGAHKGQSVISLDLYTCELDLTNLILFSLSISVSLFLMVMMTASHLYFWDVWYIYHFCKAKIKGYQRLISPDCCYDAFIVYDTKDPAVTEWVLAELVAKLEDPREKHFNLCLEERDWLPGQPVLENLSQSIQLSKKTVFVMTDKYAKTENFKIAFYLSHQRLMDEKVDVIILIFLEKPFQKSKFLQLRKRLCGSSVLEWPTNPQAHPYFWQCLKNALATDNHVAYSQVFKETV
Description: Agonist activity at human TLR7 expressed in HEK-blue TLR cells measured for 18 to 19 hrs by SEAP reporter gene based assay. The assay is classed as cell-based.

For assay [6], the system named is Mus musculus. Description: In-vivo protection against influenza A virus PR8 (A/H1N1) infection in immunocompetent BALB/c mouse model assessed as animal survival rate at 0.01 ug pretreated with compound for 3 weeks followed by viral infection and measured daily for 2 weeks. In kind it is functional. Conditions: dose 0.01 µg; time 5 weeks.
Assay [7] concerns Mus musculus. Description: In-vivo protection against influenza A virus PR8 (A/H1N1) infection in immunocompetent BALB/c mouse model assessed as animal survival rate at 1 ug pretreated with compound for 3 weeks followed by viral infection and measured daily for 2 weeks. The assay is classed as functional. Conditions: dose 1 µg; time 5 weeks.
In the next assay the target is T3, Toll-like receptor 8 (Homo sapiens, UniProt Q9NR97).
T3 sequence (Q9NR97 whole entry): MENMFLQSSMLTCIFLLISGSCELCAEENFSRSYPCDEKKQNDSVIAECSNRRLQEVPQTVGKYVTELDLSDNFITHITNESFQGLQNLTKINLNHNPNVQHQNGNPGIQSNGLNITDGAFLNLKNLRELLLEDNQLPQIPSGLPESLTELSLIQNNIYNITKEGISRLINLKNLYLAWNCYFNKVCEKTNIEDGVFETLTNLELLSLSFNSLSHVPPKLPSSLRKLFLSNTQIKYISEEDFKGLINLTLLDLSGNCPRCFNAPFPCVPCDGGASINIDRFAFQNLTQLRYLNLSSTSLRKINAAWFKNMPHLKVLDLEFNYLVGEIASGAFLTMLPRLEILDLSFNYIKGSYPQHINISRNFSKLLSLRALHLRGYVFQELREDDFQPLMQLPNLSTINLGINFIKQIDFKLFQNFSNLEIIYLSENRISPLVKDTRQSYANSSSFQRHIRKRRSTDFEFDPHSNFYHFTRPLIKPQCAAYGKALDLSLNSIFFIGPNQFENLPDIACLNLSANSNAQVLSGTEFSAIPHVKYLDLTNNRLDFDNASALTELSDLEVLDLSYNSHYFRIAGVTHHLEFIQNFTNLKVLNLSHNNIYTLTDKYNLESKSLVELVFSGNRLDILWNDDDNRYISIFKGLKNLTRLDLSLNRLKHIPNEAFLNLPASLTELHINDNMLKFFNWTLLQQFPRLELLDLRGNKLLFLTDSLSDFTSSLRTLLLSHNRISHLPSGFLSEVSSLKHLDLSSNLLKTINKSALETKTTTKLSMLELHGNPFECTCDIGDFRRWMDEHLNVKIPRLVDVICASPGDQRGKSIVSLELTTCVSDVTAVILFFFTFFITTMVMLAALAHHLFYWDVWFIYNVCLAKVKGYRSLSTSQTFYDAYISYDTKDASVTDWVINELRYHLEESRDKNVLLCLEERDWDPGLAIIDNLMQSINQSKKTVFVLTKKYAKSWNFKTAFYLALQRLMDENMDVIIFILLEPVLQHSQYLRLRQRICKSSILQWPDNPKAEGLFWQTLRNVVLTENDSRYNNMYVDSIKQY
Description: Agonist activity at human TLR8 expressed in HEK-blue TLR cells measured for 18 to 19 hrs by SEAP reporter gene based assay. In kind it is cell-based.

In assay [8] the target is T2, Toll-like receptor 7. Description: Agonist activity at TLR7 (unknown origin).
For assay [9], the species on record is Mus musculus. Description: Immunostimulatory activity in BALB/c mouse vaccinated with inactivated PR8 (A/H1N1) assessed as decrease in body weight at 1 ug measured 3 weeks after immunization. In kind it is functional, organism-based. Conditions: dose 1.0 µg.
The target of assay [10] is T4, Toll-like receptor 7 (Mus musculus) (UniProt P58681).
T4 sequence (whole entry): T1 sequence (P58681 whole entry)
Description: Agonist activity at mouse TLR7 expressed in HEK293 cells co-expressing NF-kappaB/AP-1 inducible SEAP reporter gene at 33 uM measured for 24 hrs by colorimetric analysis relative to control. The assay is classed as cell-based.

A short description of assay [11]: In-vivo activation of mouse TLR7-mediated innate immune response in immunocompetent BALB/c mouse vaccinated with inactivated influenza A virus H1N1 A/Puerto Rico/8/1934 assessed as fold increase in IgG2a level in serum at 1 ug measured 3 weeks after immunization in presence of N6-butyl-7-(4-((diethylamino)methyl)-2-methoxybenzyl)-7H-purine-2,6-diamine by ELISA analysis. In kind it is functional. The following applies: dose 1 µg. (In general: In an ELISA, binding on a coated surface is turned into a signal by an enzyme label.)

From ChEMBL document CHEMBL5512680, “Design, Synthesis, and Biological Evaluation of New 2,6,7-Substituted Purine Derivatives as Toll-like Receptor 7 Agonists for Intranasal Vaccine Adjuvants” (J Med Chem, 2024) come the findings set out here.

Usually EC50 stands for the concentration that produces a half-maximal response. Low values mean higher potency in that assay, high ones lower potency in that assay. The Emax is the maximal effect, on the per cent scale that the assay sets.

Structures are written as SMILES. The source made the active and inactive calls. The calls are words filed in the database; no cut-off is given here.

For the compound `CCCCNc1nc(N)nc2ncn(Cc3ccc(CN(CC)CC)cc3OC)c12`, the Survival in the assay listed under Mus musculus [1] is 33.3%; in the assay listed under Mus musculus [2], 66.7%; in the assay listed under Mus musculus [4], 16.7%; in the assay on Mus musculus [6], 16.7%; with Mus musculus [7], 100%. Besides, the EC50 came out at 41.7 nM at Toll-like receptor 7 [3] and 17.5 nM at Toll-like receptor 7 [5].

Consider `CCCCNc1nc(N)nc2ncn(Cc3ccc(CN(C)C)cc3OC)c12`, for which the EC50 at Toll-like receptor 7 [5] came to 29.7 nM.

On to `COc1cc(CO)ccc1Cn1cnc2nc(N)nc(NCc3ccccc3)c21`, for which the midpoint of the response at Toll-like receptor 7 [5], the EC50, lay at 2800 nM.

With `CCCN(CCC)C(=O)C1=Cc2ccc(-c3ccc(C(=O)N4CCCC4)cc3)cc2N=C(N)C1` [MOTOLIMOD], at Toll-like receptor 8, the response was half-maximal at 83.2 nM (EC50).

As to `CCCCNc1nc(N)nc2ncn(Cc3ccc(CN4CCCCC4)cc3OC)c12`, at Toll-like receptor 7 [5], the response was half-maximal at 20.5 nM (EC50).

With `CCCCNc1nc(N)nc2ncn(Cc3ccc(CN4CCN(C)CC4)cc3OC)c12`, the results for the EC50 at Toll-like receptor 8 (hek-blue tlr) and at Toll-like receptor 7 [5] were under 10000 nM and 24.7 nM, respectively.

On Toll-like receptor 7 [5], `CCCCNc1nc(N)nc2ncn(Cc3ccc(CN4CCNCC4)cc3OC)c12` showed an EC50 of 169 nM.

Turning to `CC(C)Cn1cnc2c(N)nc3ccccc3c21` [IMIQUIMOD], at Toll-like receptor 7 [8], the half-maximal effective concentration (EC50) stood at 202 nM.

As for `CCOCc1nc2c(N)nc3ccccc3c2n1CC(C)(C)C`, a half-maximal response at Toll-like receptor 7 [3] (EC50) required 299 nM.

As to `CCCCOc1nc(N)c2c(n1)N(Cc1cccc(CN3CCCC3)c1)CC(=O)N2` [VESATOLIMOD], on Toll-like receptor 7 [3], the half-maximal effective concentration (EC50) is 4570 nM. Besides, the outcome in the assay filed under Mus musculus [9] was Active. This compound yielded an Emax in assay [10] of 0.657%. The “fold change (FC)” value in [11] turned out to be 5.2.
